15 molecules from US20240409585A1, “MACROCYCLIC IMMUNOMODULATORS” (priority 2021, published 2024) can be followed below.

Numbered stars: 1 amine (or outer) side, 2 acyl side, 3 side chain; on linkers, the order of the positions; unused ones are H or OH. Bridge positions count the residues as written; N and C are the ends. Square brackets hold non-standard residues; d marks the D form. Peptide text beside a SMILES is read from it. * marks the point of attachment. ξ: configuration not given here. Phe(3-CF3) = N[C@@H](Cc1cccc(C(F)(F)F)c1)C(=O)O; Ala(morpholin-4-yl) = N[C@@H](CN1CCOCC1)C(=O)O; Phe(4-COOH) = N[C@@H](Cc1ccc(C(=O)O)cc1)C(=O)O; X16 = O=C([C@H](Cc1ccc2cnccc2c1)N[*:1])[*:2]; Bip = N[C@@H](Cc1ccc(-c2ccccc2)cc1)C(=O)O; Phe(3-Me) = Cc1cccc(C[C@H](N)C(=O)O)c1; 3Pal = N[C@@H](Cc1cccnc1)C(=O)O; 4Pal = N[C@@H](Cc1ccncc1)C(=O)O; Cha = N[C@@H](CC1CCCCC1)C(=O)O; Cit = NC(=O)NCCC[C@H](N)C(=O)O; Thr(3ξ) = CC(O)[C@H](N)C(=O)O; hSer = N[C@@H](CCO)C(=O)O; Carboxymethyl = O=C(O)C*; NMeA = CN[C@@H](C)C(=O)O; Orn = NCCC[C@H](N)C(=O)O; Dab = NCC[C@H](N)C(=O)O

In the test the target is T1, PE-labeled human PD-L1-Ig binding to Jurkat cell line over-expressing human PD-1 (Jurkat-PD-1) (Homo sapiens, UniProt Q15116).
T1 construct: expressed in transfected cells; host or cells: Jurkat
T1 sequence (Q15116 25-288): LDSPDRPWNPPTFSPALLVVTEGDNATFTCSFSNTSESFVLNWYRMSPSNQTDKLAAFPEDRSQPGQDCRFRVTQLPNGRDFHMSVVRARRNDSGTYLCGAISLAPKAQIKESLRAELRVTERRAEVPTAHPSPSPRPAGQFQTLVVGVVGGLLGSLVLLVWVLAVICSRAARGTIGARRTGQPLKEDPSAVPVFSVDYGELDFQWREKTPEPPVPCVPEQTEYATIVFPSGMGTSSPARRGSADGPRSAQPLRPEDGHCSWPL
As to the kind of experiment: Jurkat-PD-1 Cell Binding High-Content Screening Assay (CBA): Method 1. The note with it: Jurkat-hPD-1 cells, PE-labeled PD-L1-Ig 20 nM final; read-out: Jurkat HPDL1 PD1 IC50 (uM) (Method 1).

Usually IC50 stands for the point on the concentration scale where inhibition reaches its midpoint. Take `CC(C)C[C@H]1NC(=O)[C@H](C)N(C)C(=O)[C@H](CCCNC(=N)N)NC(=O)[C@H](Cc2ccc(-c3ccccc3)cc2)NC(=O)[C@H](C(C)C)NC(=O)[C@H](Cc2c[nH]c3ccccc23)NC(=O)[C@H](CC(=O)O)NC(=O)[C@H](Cc2ccc(O)cc2)NC(=O)[C@H](CC(N)=O)NC(=O)CSC[C@@H](C(=O)N[C@@H](C)C(N)=O)NC(=O)[C@H]([C@@H](C)O)NC(=O)[C@H](C(C)C)NC(=O)[C@H](CC2CCCCC2)NC(=O)[C@H](CCN)NC1=O` [Compound 1284] ({CH2CO}-NYDWV[Bip]R[NMeA][dL][Dab][Cha]VTCA-NH2; thioether N-14): the IC50 was determined as 0.01 µM.
Under `CC(C)C[C@@H]1NC(=O)[C@H](Cc2c[nH]c3ccccc23)NC(=O)[C@H](CC(=O)O)NC(=O)[C@H](CCO)NC(=O)[C@H](Cc2ccccc2)NC(=O)CSC[C@@H](C(=O)N[C@@H](C)C(=O)N[C@@H](CCC(=O)O)C(N)=O)NC(=O)[C@H](CO)NC(=O)[C@H](C(C)C)NC(=O)[C@H](CC(C)C)NC(=O)[C@H](CC(N)=O)NC(=O)[C@@H](CC(C)C)NC(=O)[C@H](C)N(C)C(=O)[C@H](C(C)C)NC(=O)[C@H](Cc2ccc(-c3ccccc3)cc2)NC1=O` [Compound 2009] ({CH2CO}-F[hSer]DWL[Bip]V[NMeA][dL]NLVSCAE-NH2; thioether N-14) stands 0.02 µM; under `CC(C)C[C@@H]1NC(=O)[C@H](CCN)NC(=O)[C@@H](CC(C)C)NC(=O)[C@H](C)N(C)C(=O)[C@H](CCCNC(N)=O)NC(=O)[C@H](Cc2ccc(-c3ccccc3)cc2)NC(=O)[C@H](C(C)C)NC(=O)[C@H](Cc2c[nH]c3ccccc23)NC(=O)[C@H](CC(=O)O)NC(=O)[C@H](Cc2ccc(O)cc2)NC(=O)[C@H](CCC(N)=O)NC(=O)CSC[C@@H](C(=O)N[C@@H](C)C(N)=O)NC(=O)[C@H]([C@@H](C)O)NC(=O)[C@H](C(C)C)NC1=O` [Compound 1357] ({CH2CO}-QYDWV[Bip][Cit][NMeA][dL][Dab]LVTCA-NH2; thioether N-14), 0.06 µM.
Take `CC(C)C[C@@H]1NC(=O)[C@H](CCN)NC(=O)[C@@H](CC(C)C)NC(=O)[C@H](C)N(C)C(=O)[C@H](CCCNC(=N)N)NC(=O)[C@H](Cc2ccc(-c3ccccc3)cc2)NC(=O)[C@H](C(C)C)NC(=O)[C@H](Cc2c[nH]c3ccccc23)NC(=O)[C@H](CC(=O)O)NC(=O)[C@H](Cc2ccc(O)cc2)NC(=O)[C@H](Cc2cccnc2)NC(=O)CSC[C@@H](C(=O)N[C@@H](C)C(N)=O)NC(=O)[C@H]([C@@H](C)O)NC(=O)[C@H](C(C)C)NC1=O` [Compound 1053] ({CH2CO}-[3Pal]YDWV[Bip]R[NMeA][dL][Dab]LVTCA-NH2; thioether N-14): the IC50 worked out at 0.12 µM.
Consider `Cc1cccc2c(CC3NC(=O)[C@H](CC(=O)O)NC(=O)[C@H](Cc4ccc(O)cc4)NC(=O)[C@H](Cc4ccccc4)NC(=O)CSC[C@@H](C(=O)N[C@@H](C)C(N)=O)NC(=O)[C@H]([C@@H](C)O)NC(=O)[C@H](C(C)C)NC(=O)[C@H](CC(C)C)NC(=O)[C@H](CCCNC(=N)N)NC(=O)[C@@H](CC(C)C)NC(=O)[C@H](C)N(C)C(=O)[C@H](CCCNC(=N)N)NC(=O)[C@H](Cc4ccc(-c5ccccc5)cc4)NC(=O)[C@H](C(C)C)NC3=O)n[nH]c12` (mixture of isomers) [Compound 1105], for which the IC50 amounted to 0.87 µM.
With `CC(C)C[C@@H]1NC(=O)[C@H](CCN)NC(=O)[C@@H](CC(C)C)NC(=O)[C@H](C)N(C)C(=O)[C@H](CCCNC(=N)N)NC(=O)[C@H](Cc2ccc(-c3ccccc3)cc2)NC(=O)[C@H](C(C)C)NC(=O)[C@H](Cc2c[nH]c3ccccc23)NC(=O)[C@H](CC(=O)O)NC(=O)[C@H](Cc2ccc(O)cc2)NC(=O)[C@H](Cc2ccccc2)NC(=O)CSC[C@@H](C(=O)N[C@@H](CO)C(N)=O)NC(=O)[C@H]([C@@H](C)O)NC(=O)[C@H](C(C)C)NC1=O` [Compound 1178] ({CH2CO}-FYDWV[Bip]R[NMeA][dL][Dab]LVTCS-NH2; thioether N-14), the half-maximal inhibitory concentration (IC50) was determined as 0.05 µM.
For `Cc1cccc(C[C@@H]2NC(=O)[C@H](CC(=O)O)NC(=O)[C@H](Cc3ccc(OCC(=O)O)cc3)NC(=O)[C@H](Cc3ccc(OCC(=O)O)cc3)NC(=O)CSC[C@@H](C(N)=O)NC(=O)[C@H](CCCN)NC(=O)[C@H](C(C)C)NC(=O)[C@H](CC3CCCCC3)NC(=O)[C@H](CCN)NC(=O)[C@@H](CC(C)C)NC(=O)[C@H](C)N(C)C(=O)[C@H](Cc3ccc(OCC(=O)O)cc3)NC(=O)[C@H](Cc3ccc(-c4ccccc4)cc3)NC(=O)[C@H](Cc3ccc(OCC(=O)O)cc3)NC2=O)c1` [Compound 1652] ({CH2CO}-Y(Carboxymethyl)Y(Carboxymethyl)D[Phe(3-Me)]Y(Carboxymethyl)[Bip]Y(Carboxymethyl)[NMeA][dL][Dab][Cha]V[Orn]C-NH2; thioether N-14), the IC50 turned out to be 0.03 µM.
For the molecule `CC(C)C[C@@H]1NC(=O)[C@H](CCCNC(=N)N)NC(=O)[C@@H](CC(C)C)NC(=O)[C@H](C)N(C)C(=O)[C@H](CCCN)NC(=O)[C@H](Cc2ccc(-c3ccccc3)cc2)NC(=O)[C@H](C(C)C)NC(=O)[C@H](Cc2c[nH]c3ccccc23)NC(=O)[C@H](CC(=O)O)NC(=O)[C@H](Cc2ccc(O)cc2)NC(=O)[C@H](Cc2ccccc2)NC(=O)CSC[C@@H](C(=O)N[C@@H](C)C(N)=O)NC(=O)[C@H]([C@@H](C)O)NC(=O)[C@H](C(C)C)NC1=O` [Compound 1123] ({CH2CO}-FYDWV[Bip][Orn][NMeA][dL]RLVTCA-NH2; thioether N-14), the IC50 amounted to 0.06 µM.
Take `CC(C)C[C@@H]1NC(=O)[C@H](CCN)NC(=O)[C@@H](CC(C)C)NC(=O)[C@H](C)N(C)C(=O)[C@H](CCCNC(N)=O)NC(=O)[C@H](Cc2ccc(-c3ccccc3)cc2)NC(=O)[C@H](C(C)C)NC(=O)[C@H](Cc2c[nH]c3ccccc23)NC(=O)[C@H](CC(=O)O)NC(=O)[C@H](Cc2ccc(O)cc2)NC(=O)[C@H](Cc2ccc3cnccc3c2)NC(=O)CSC[C@@H](C(=O)N[C@@H](C)C(N)=O)NC(=O)[C@H](C(C)O)NC(=O)[C@H](C(C)C)NC1=O` (stereo partly drawn) [Compound 2037] ({CH2CO}-[X16]YDWV[Bip][Cit][NMeA][dL][Dab]LV[Thr(3ξ)]CA-NH2; thioether N-14): the half-inhibitory concentration (IC50) was determined as 0.02 µM.
In the case of `CC[C@H](C)[C@@H]1NC(=O)[C@H](Cc2ccc(-c3ccccc3)cc2)NC(=O)[C@H](C(C)C)NC(=O)[C@H](Cc2c[nH]c3ccccc23)NC(=O)[C@H](CC(=O)O)NC(=O)[C@H](Cc2ccc(O)cc2)NC(=O)[C@H](Cc2ccncc2)NC(=O)CSC[C@@H](C(N)=O)NC(=O)[C@H]([C@@H](C)O)NC(=O)[C@H](C(C)C)NC(=O)[C@H](CC(C)C)NC(=O)[C@H](CCN)NC(=O)[C@@H](CC(C)C)NC(=O)[C@H](C)N(C)C1=O` [Compound 1632] ({CH2CO}-[4Pal]YDWV[Bip]I[NMeA][dL][Dab]LVTC-NH2; thioether N-14) it was 0.13 µM; in that of `CC[C@H](C)[C@@H]1NC(=O)[C@H](CC(C)C)NC(=O)[C@H](CCCNC(=N)N)NC(=O)[C@@H](CC(C)C)NC(=O)[C@H](C)N(C)C(=O)[C@H](CCCNC(=N)N)NC(=O)[C@H](Cc2ccc(-c3ccccc3)cc2)NC(=O)[C@H](C(C)C)NC(=O)[C@H](Cc2c[nH]c3ccccc23)NC(=O)[C@H](CC(=O)O)NC(=O)[C@H](Cc2ccc(O)cc2)NC(=O)[C@H](Cc2ccccc2)NC(=O)CSC[C@@H](C(=O)N[C@@H](C)C(N)=O)NC(=O)[C@H]([C@@H](C)O)NC1=O` [Compound 1118] ({CH2CO}-FYDWV[Bip]R[NMeA][dL]RLITCA-NH2; thioether N-14), 0.16 µM; in that of `CC(C)C[C@@H]1NC(=O)[C@H](Cc2c[nH]c3ccccc23)NC(=O)[C@H](CC(=O)O)NC(=O)[C@H](Cc2ccc(OCC(=O)O)cc2)NC(=O)[C@H](CC(N)=O)NC(=O)CSC[C@@H](C(=O)N[C@@H](C)C(N)=O)NC(=O)[C@H](CO)NC(=O)[C@H](C(C)C)NC(=O)[C@H](CC(C)C)NC(=O)[C@H](CC(N)=O)NC(=O)[C@@H](C)NC(=O)[C@H](C)N(C)C(=O)[C@H](C(C)C)NC(=O)[C@H](Cc2ccc(-c3ccccc3)cc2)NC1=O` [Compound 1769] ({CH2CO}-NY(Carboxymethyl)DWL[Bip]V[NMeA][dA]NLVSCA-NH2; thioether N-14), 0.04 µM.
In the case of `Cc1cccc(C[C@@H]2NC(=O)[C@H](CC(=O)O)NC(=O)[C@H](Cc3ccc(O)cc3)NC(=O)[C@H](CC(N)=O)NC(=O)CSC[C@@H](C(=O)N[C@@H](C)C(N)=O)NC(=O)[C@H]([C@@H](C)O)NC(=O)[C@H](C(C)C)NC(=O)[C@H](CC(C)C)NC(=O)[C@H](CCCNC(=N)N)NC(=O)[C@@H](CC(C)C)NC(=O)[C@H](C)N(C)C(=O)[C@H](CCCNC(=N)N)NC(=O)[C@H](Cc3ccc(-c4ccccc4)cc3)NC(=O)[C@H](C(C)C)NC2=O)c1` [Compound 1192] ({CH2CO}-NYD[Phe(3-Me)]V[Bip]R[NMeA][dL]RLVTCA-NH2; thioether N-14), the IC50 was 0.03 µM.
Consider `Cc1cccc(C[C@@H]2NC(=O)[C@H](Cc3ccncc3)NC(=O)CSC[C@@H](C(=O)NCC(N)=O)NC(=O)[C@H](CO)NC(=O)[C@H](C(C)C)NC(=O)[C@H](CC(C)C)NC(=O)[C@H](CC(N)=O)NC(=O)[C@@H](CC(C)C)NC(=O)[C@H](C)N(C)C(=O)[C@H](C(C)C)NC(=O)[C@H](Cc3ccc(-c4ccccc4)cc3)NC(=O)[C@H](CC(C)C)NC(=O)[C@H](Cc3c[nH]c4ccccc34)NC(=O)[C@H](CC(=O)O)NC2=O)c1` [Compound 1519] ({CH2CO}-[4Pal][Phe(3-Me)]DWL[Bip]V[NMeA][dL]NLVSCG-NH2; thioether N-14), for which the IC50 came out at 0.02 µM.
Turning to `CC(C)C[C@H]1NC(=O)[C@H](C)N(C)C(=O)[C@H](CCC(N)=O)NC(=O)[C@H](Cc2ccc(-c3ccccc3)cc2)NC(=O)[C@H](Cc2ccc(C(=O)O)cc2)NC(=O)[C@H](Cc2cccc(C(F)(F)F)c2)NC(=O)[C@H](CC(N)=O)NC(=O)[C@H](Cc2ccc(C(=O)O)cc2)NC(=O)[C@H](CN2CCOCC2)NC(=O)CSC[C@@H](C(=O)N[C@@H](CCN)C(N)=O)NC(=O)[C@H](CCCN)NC(=O)[C@H](C(C)C)NC(=O)[C@H](CC2CCCCC2)NC(=O)[C@H](CCN)NC1=O` [Example 2279] ({CH2CO}-[Ala(morpholin-4-yl)][Phe(4-COOH)]N[Phe(3-CF3)][Phe(4-COOH)][Bip]Q[NMeA][dL][Dab][Cha]V[Orn]C[Dab]-NH2; thioether N-14), the IC50 is 0.11 µM.
